Read-outs that look alike come from different tables or passages of the source.
What was measured:
[1] = biological target: T1, CYP19A (Homo sapiens, UniProt P11511)
T1 sequence (P11511 1-503): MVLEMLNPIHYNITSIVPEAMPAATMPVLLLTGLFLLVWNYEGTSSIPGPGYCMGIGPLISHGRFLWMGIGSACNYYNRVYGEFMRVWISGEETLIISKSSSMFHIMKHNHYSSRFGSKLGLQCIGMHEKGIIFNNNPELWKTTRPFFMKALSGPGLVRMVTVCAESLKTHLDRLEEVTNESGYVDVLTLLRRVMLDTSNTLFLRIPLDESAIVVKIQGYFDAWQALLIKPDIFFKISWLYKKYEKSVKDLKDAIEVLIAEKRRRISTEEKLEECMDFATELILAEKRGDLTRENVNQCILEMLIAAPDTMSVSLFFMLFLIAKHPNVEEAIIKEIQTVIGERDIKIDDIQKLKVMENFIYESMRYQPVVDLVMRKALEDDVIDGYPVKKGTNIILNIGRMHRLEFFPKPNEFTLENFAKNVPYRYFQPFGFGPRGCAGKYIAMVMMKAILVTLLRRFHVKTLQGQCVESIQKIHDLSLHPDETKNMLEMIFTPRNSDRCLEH

[2] = biological target: CYP2C9 (Homo sapiens, UniProt P11712); experiment: biochemical
Method: (§1) Human OX2 receptor binding (agonist radioligand) assays were finished by Gifford
(§2) Bioscience Limited. Competition binding assays were carried out in 96-well polypropylene
(§3) plates in a final volume of 250 µL per well. To each well were added 150 µL Human OX2
(§4) Receptor Membranes (MultiSpan Inc, MC1034), 50 µL of non-specific or test compound
(§5) or buffer (50 mM Tris, 5 mM MgCl2, 0.1 mM EDTA, pH 7.4), and 50 µL radioligand
(§6) ([3H]EMPA) solution in the buffer. The plate was incubated at 30 °C for 60 minutes with
(§7) gentle agitation. The incubation was stopped by vacuum filtration onto presoaked (Tris
(§8) buffer with PEI) GF/C filters using a 96-well FilterMate™ harvester, followed by 5 washes
(§9) with ice-cold wash buffer (50 mM Tris, 5 mM MgCl2, 0.1 mM EDTA, pH 7.4). Filters were
(§10) then dried under a warm air stream and sealed in polyethylene, a scintillation cocktail was
(§11) specific binding. Data were fitted using the non-linear curve fitting routines in Prism®
(§12) (Graphpad Software Inc) to determine IC50. Ki was subsequently calculated using the
(§13) CYP enzymes and hERG inhibition assays were finished by Reaction Biology Corporation.

[3] = biological target: CYP2C19 (Homo sapiens, UniProt P33261); experiment: biochemical
Description: as §13

[4] = biological target: CYP2D6 (Homo sapiens, UniProt P10635); experiment: biochemical
Description: as §13

[5] = biological target: CYP3A4 (Homo sapiens, UniProt P08684); experiment: biochemical
Description: as §13

[6] = biological target: hERG (Homo sapiens, UniProt Q12809); experiment: biochemical
Method: as §1, §2, §3, §4, §5, §6, §7, §8, §9, §10, §11, §12, §13

[7] = biological target: T2, CYP1A2 (Homo sapiens, UniProt P05177); experiment: CYP450 inhibition assay
T2 sequence (P05177 1-516): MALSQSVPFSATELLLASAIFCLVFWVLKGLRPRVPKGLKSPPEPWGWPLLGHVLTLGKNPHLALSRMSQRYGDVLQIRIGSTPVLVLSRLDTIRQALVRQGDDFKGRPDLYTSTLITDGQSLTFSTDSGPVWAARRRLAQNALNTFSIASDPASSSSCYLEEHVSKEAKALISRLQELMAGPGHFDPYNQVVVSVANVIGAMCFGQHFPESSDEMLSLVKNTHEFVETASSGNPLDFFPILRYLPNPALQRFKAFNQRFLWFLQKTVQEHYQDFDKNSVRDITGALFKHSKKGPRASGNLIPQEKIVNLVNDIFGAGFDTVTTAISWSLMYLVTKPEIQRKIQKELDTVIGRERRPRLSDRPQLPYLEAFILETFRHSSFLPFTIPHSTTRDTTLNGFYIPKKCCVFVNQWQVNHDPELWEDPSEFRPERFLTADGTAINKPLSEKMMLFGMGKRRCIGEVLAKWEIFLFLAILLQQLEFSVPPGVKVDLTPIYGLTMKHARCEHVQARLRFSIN
Method: as §1, §2, §3, §4, §5, §6, §7, §8, §9, §10, §11, §12, §13

[8] = biological target: T3, orexin 2 receptors (Rattus norvegicus, UniProt P56719); experiment: In vitro autoradiography in rat brain sections; conditions: for effect of blocker on radioactivity in OX2-rich brain regions: blocker 10 μM, autoradiography with [11C]1 or [11C]2, rat brain sections; for in vitro binding specificity: rat brain sections, autoradiography
T3 sequence (P56719 1-460): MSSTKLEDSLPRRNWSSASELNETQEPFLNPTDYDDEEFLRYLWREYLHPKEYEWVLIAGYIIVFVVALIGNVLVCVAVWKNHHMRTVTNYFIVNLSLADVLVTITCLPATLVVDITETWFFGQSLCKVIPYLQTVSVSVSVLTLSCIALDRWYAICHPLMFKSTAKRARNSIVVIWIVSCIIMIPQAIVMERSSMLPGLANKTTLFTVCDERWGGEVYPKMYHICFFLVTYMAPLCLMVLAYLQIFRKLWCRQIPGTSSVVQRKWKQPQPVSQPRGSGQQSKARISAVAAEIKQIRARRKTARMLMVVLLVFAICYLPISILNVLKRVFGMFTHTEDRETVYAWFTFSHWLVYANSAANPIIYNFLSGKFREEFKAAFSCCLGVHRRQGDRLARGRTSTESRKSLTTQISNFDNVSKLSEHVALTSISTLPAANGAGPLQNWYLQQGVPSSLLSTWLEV
Method: 2.5 In vitro autoradiography
The method for in vitro autoradiography was slightly modified from previous reports. 5 Rat
brain was cut into 20 μm sections, stored at −80 °C, and ready for the experiment. The rat
brain sections were preincubated with Tris−HCl buffer (50 mM) containing MgCl2 (2 mM)
and CaCl2 (1.2 mM) for 20 min at ambient temperature, followed by incubation with [11C]1
added to incubation solution. Then the brain sections were washed with ice-cold buffer for
three times and dipped in cold distilled water for 10 s. The brain sections were dried with
cold air. The exposure time for the phosphor plate in the autoradiography study is 1 h .

[9] = biological target: peripheral benzodiazepine receptor (Rattus norvegicus, UniProt P16257); experiment: Off-target binding (NIMH PDSP), peripheral benzodiazepine receptor
[10] = biological target: T4, human orexin 2 receptor (Homo sapiens, UniProt O43614); experiment: Human OX2 receptor radioligand ([3H]EMPA) competition binding assay; conditions: for Selectivity (OX2R/OX1R): Figure 4b
T4 sequence (O43614 1-444): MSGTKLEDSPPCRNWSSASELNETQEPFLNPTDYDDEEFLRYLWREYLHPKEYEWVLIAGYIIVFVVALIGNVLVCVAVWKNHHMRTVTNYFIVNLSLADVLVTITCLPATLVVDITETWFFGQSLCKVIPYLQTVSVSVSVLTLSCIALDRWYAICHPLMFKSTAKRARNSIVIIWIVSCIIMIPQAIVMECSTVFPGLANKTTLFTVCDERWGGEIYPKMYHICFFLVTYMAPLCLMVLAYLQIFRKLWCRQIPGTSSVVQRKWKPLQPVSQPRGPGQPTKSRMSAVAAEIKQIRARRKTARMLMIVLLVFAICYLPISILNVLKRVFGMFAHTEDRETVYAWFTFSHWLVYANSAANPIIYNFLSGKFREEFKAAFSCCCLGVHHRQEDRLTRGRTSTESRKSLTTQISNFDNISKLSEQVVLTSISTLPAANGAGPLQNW
Method: as §1, §2, §3, §4, §5, §6, §7, §8, §9, §10, §11, §12, §13

[11] = Stability of radiotracer in saline; type: physicochemical; conditions: within 90 min
Method: Based on the favorable in vitro pharmacological and ADME properties, compounds 1 and 2 were labeled with carbon-11 and evaluated as OX2 PET radioligands. […] The reaction mixtures were then diluted with the HPLC buffer and purified by a semipreparative reverse HPLC to give [^11C]1 and [^11C]2 in 71% and 20% radiochemical yields (decay-corrected) with the molar activities of 210 GBq/μmol and 185 GBq/μmol, respectively.

[12] = test system: rat brain; experiment: Dynamic PET imaging in Sprague-Dawley rats
Method: The imaging studies were conducted according to the previous literature6,7 with minor
modifications. PET scans were carried out by an Inveon PET scanner. Sprague-Dawley
rats were kept under anesthesia with 1-2% (v/v) isoflurane during the scan. The radiotracer
[11C]1 (37–42 MBq) or [11C]2 (32–37 MBq) was injected via a preinstalled catheter into
the tail vein. A dynamic scan in 3D mode was acquired for 60 min. For blocking studies, a
solution of elacridar (3 mg/kg) in 300 µL saline containing 10% DMSO, 40% polyethylene
glycol, and 5% Tween® 80 was injected at 20 min via the pre-embedded tail vein catheter
before PET tracer injection. An MR template of SD rats was applied for PET/MR merged
images. The radioactivity was decay-corrected and expressed as the standardized uptake
value (SUV). SUV = (radioactivity per mL tissue / injected radioactivity) x body weight.

[13] = test system: OX2R; set-up: method as in PMID 19751316; conditions: cited from earlier work
[14] = SD rats pretreated with Elacridar 3 mg/kg 20 min before tracer

Chain of CYP2D6 (P10635 whole entry, species assumed): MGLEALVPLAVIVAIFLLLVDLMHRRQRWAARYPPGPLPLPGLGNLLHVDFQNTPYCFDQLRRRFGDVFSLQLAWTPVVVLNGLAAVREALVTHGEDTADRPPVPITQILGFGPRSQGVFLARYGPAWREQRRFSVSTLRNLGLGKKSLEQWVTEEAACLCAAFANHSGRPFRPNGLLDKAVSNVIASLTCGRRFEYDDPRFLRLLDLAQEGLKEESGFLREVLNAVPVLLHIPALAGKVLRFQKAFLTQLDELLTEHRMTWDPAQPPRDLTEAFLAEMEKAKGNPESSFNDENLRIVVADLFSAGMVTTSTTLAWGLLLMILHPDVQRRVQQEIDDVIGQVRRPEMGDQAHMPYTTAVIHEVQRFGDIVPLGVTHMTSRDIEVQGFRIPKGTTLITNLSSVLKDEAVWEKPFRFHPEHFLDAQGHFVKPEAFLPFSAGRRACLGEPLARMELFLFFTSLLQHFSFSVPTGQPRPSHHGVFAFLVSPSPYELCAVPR
Chain of CYP2C9 (P11712 whole entry, species assumed): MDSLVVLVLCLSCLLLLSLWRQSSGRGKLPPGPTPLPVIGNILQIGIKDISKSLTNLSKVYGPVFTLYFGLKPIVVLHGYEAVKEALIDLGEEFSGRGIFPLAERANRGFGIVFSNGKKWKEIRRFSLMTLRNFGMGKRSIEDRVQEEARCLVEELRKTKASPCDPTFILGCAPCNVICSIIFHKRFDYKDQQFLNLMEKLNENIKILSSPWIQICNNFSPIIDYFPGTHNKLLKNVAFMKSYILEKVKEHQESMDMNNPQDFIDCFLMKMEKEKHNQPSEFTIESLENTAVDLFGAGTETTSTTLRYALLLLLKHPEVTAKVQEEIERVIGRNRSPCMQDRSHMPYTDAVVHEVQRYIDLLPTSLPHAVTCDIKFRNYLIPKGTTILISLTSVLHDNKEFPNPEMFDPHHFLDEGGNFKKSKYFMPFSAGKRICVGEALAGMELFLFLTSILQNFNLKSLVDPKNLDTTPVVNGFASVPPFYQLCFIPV
Chain of hERG (Q12809 whole entry): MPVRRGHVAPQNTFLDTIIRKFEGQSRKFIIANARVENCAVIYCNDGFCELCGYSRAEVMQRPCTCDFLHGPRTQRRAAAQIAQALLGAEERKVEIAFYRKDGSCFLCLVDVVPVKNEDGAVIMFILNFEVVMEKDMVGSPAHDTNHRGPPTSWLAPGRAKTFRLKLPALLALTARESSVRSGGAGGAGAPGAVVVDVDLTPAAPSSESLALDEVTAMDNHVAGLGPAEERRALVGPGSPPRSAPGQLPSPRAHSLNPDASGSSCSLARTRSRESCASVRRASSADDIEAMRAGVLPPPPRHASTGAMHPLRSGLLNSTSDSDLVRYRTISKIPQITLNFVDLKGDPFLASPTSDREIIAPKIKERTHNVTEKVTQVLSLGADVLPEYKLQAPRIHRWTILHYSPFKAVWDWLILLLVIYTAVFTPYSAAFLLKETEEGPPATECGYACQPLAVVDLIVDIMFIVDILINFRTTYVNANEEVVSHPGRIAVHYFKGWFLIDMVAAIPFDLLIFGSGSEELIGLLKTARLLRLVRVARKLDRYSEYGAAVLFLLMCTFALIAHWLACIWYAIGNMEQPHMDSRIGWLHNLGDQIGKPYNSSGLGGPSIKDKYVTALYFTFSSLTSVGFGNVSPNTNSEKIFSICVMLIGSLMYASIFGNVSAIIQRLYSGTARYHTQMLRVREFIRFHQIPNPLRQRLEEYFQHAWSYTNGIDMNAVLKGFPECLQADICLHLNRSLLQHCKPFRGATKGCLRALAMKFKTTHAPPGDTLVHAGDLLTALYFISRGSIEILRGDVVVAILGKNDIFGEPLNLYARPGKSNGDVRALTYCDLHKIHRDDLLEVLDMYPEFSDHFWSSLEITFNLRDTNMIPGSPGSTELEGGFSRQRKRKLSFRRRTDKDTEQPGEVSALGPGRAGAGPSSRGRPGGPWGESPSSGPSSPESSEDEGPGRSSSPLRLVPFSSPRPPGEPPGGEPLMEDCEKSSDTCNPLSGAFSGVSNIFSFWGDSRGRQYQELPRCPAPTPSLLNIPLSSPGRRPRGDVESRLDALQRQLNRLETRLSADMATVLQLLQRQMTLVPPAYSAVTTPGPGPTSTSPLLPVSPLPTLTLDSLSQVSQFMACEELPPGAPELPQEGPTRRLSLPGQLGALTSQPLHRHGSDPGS
Chain of CYP2C19 (P33261 whole entry, species assumed): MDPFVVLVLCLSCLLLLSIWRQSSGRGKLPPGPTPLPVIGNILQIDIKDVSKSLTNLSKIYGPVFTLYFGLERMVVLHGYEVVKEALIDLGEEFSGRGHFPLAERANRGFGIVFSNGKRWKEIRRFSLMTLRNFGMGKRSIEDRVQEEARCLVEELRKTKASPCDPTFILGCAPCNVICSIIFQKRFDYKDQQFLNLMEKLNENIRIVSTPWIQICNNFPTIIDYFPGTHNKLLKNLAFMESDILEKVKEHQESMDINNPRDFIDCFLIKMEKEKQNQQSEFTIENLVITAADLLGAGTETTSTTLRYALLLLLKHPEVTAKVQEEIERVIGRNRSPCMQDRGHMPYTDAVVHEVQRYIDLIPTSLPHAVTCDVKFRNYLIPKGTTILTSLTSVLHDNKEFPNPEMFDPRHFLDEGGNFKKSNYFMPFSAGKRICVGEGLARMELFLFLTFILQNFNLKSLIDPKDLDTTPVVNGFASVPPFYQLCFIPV
Chain of CYP3A4 (P08684 whole entry, species assumed): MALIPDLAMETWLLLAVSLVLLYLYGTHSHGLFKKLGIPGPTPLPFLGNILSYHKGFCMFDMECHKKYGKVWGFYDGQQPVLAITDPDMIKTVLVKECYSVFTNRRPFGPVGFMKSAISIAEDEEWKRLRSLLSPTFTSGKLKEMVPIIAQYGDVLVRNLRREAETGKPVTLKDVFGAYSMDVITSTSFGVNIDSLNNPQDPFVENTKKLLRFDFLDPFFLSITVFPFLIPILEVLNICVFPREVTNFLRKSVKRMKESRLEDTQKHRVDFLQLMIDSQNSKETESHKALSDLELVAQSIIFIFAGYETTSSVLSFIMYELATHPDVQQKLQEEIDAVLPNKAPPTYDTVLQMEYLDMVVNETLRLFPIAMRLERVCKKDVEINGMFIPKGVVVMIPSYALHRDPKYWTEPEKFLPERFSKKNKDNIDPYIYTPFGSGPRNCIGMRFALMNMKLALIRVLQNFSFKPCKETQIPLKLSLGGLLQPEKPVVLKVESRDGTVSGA

| Molecule | IC50 [1] [µM] | IC50 [2] [µM] | IC50 [3] [µM] | IC50 [4] [µM] | IC50 [5] [µM] | IC50 [6] [µM] | IC50 [7] [µM] | effect of blocker on radioactivity in OX2-rich brain regions [8] | Ki [10] [µM] | target selectivity OX2/OX1 [10] [folds] | Selectivity (OX2R/OX1R) [10] | stability in saline [11] | in vitro binding specificity [8] | other results |
| --- | --- | --- | --- | --- | --- | --- | --- | --- | --- | --- | --- | --- | --- | --- |
| CCN(Cc1ccccc1)C(=O)CN(c1ccccc1OC)S(=O)(=O)c1ncccc1C [Compound 1] | > 5 | > 5 | > 5 | > 5 | > 5 | > 100 | > 5 | remarkably diminished the radioactivity | 0.0036 | > 600 | 601 |  |  | Ki [9]: 0.253 µM; IC50 [10]: 0.0071 µM |
| CCN(Cc1ccccc1)C(=O)CN(c1ccc(OC)nc1)S(=O)(=O)c1ncccc1C [Compound 2] | > 5 | > 5 | > 5 | > 5 | > 5 | > 100 | > 5 | remarkably diminished the radioactivity | 0.0022 | > 600 | 1220 |  |  | IC50 ([10]; read-out: IC50/OX2, [3H]EMPA competition, human OX2 receptor membranes): 0.0044 µM |
| CCN(Cc1ccccc1)C(=O)CN(c1ccccc1O[11CH3])S(=O)(=O)c1ncccc1C [[^11C]1] |  |  |  |  |  |  |  |  |  |  |  | stable | good to excellent in vitro binding specificity |  |
| CCN(Cc1ccccc1)C(=O)CN(c1ccc(O[11CH3])nc1)S(=O)(=O)c1ncccc1C [[^11C]2] |  |  |  |  |  |  |  |  |  |  |  | stable | good to excellent in vitro binding specificity | highest radioactivity levels in hippocampus and cerebellum [12, 14]: 0.9 SUV; radioactivity level after washout in hippocampus and cerebellum [12, 14]: 0.3 SUV; brain uptake ([12]; baseline PET, SD rats): poor brain uptake; highest radioactivity levels in hippocampus and cerebellum ([12]; baseline, SD rats, 2 min postadministration of tracer): around 0.4 SUV; radioactivity level after washout in hippocampus and cerebellum ([12]; baseline, SD rats, 60 min scan): 0.2 SUV; bound radioactivity levels in hippocampus and cerebellum after blocking ([12]; preadministration of EMPA 1 mg/kg i.v., SD rats): did not remarkably reduce |
| orexin-B: endogenous neuropeptide ligand, a 28 amino acid peptide |  |  |  |  |  |  |  |  |  |  |  |  |  | selectivity toward OX2R against OX1R [13]: > 10 folds |
